Measurements: ChEMBL document CHEMBL5154757, “Phosphodiesters as GPR84 Antagonists for the Treatment of Ulcerative Colitis” (J Med Chem, 2022)

Experiments:
[1] = target: G-protein coupled receptor 84 (Homo sapiens, UniProt Q9NQS5); assay: Antagonist activity at human GPR84 expressed in HEK293 cells co-expressing Galpha16 assessed as reduction in 6-OAU induced intracellular calcium response preincubated for 10 mins followed by agonist addition and measured after 1 min by calcium mobilization assay; type: functional, cell-based
[2] = Cmax in CD-1 mouse at 5 mg/kg, po administered as single dose measured upto 24 hrs by LC-MS/MS analysis; type: ADME, organism-based; parameters: time < 24 hrs, dose 5 mg/kg, route po; conditions: in vivo
[3] = MRT in CD-1 mouse at 5 mg/kg, po administered as single dose measured upto 24 hrs by LC-MS/MS analysis; type: ADME, organism-based; conditions: in vivo
[4] = MRT in CD-1 mouse at 2 mg/kg, iv administered as single dose measured upto 24 hrs by LC-MS/MS analysis; type: ADME, organism-based; conditions: in vivo
[5] = Half life in CD-1 mouse at 5 mg/kg, po administered as single dose measured upto 24 hrs by LC-MS/MS analysis; type: ADME, organism-based; conditions: in vivo
[6] = AUC(0 to infinity) in CD-1 mouse at 2 mg/kg, iv administered as single dose measured upto 24 hrs by LC-MS/MS analysis; type: ADME, organism-based; parameters: time < 24 hrs, dose 2 mg/kg, route iv; conditions: in vivo
[7] = AUC(0 to infinity) in CD-1 mouse at 5 mg/kg, po administered as single dose measured upto 24 hrs by LC-MS/MS analysis; type: ADME, organism-based; parameters: time < 24 hrs, dose 5 mg/kg, route po; conditions: in vivo
[8] = Volume of distribution at steady state in CD-1 mouse at 2 mg/kg, iv administered as single dose measured upto 24 hrs by LC-MS/MS analysis; type: ADME, organism-based; conditions: in vivo, read-out: Vdss
[9] = Half life in CD-1 mouse at 2 mg/kg, iv administered as single dose measured upto 24 hrs by LC-MS/MS analysis; type: ADME, organism-based; conditions: in vivo
[10] = Oral bioavailability in CD-1 mouse at 5 mg/kg administered as single dose measured upto 24 hrs by LC-MS/MS analysis; type: ADME, organism-based; conditions: in vivo
[11] = Tmax in CD-1 mouse at 5 mg/kg, po administered as single dose measured upto 24 hrs by LC-MS/MS analysis; type: ADME, organism-based; conditions: in vivo
[12] = target: G-protein coupled receptor 84 (Mus musculus, UniProt Q8CIM5); assay: Antagonist activity at mouse GPR84 expressed in HEK293 cells assessed as reduction in 6-OAU induced intracellular calcium response preincubated for 10 mins followed by agonist addition and measured after 1 min by calcium mobilization assay; type: functional, cell-based
[13] = Clearance in CD-1 mouse at 2 mg/kg, iv administered as single dose measured upto 24 hrs by LC-MS/MS analysis; type: ADME, organism-based; conditions: in vivo
[14] = target: G-protein coupled receptor 84 (Mus musculus) (UniProt Q8CIM5); assay: Antagonist activity at GPR84 expressed in mouse bone marrow cells assessed as reduction in 6-OAU induced migration in neutrophils incubated for 90 mins by flow cytometry; type: functional, cell-based; conditions: Bone marrow cell, filed as antagonist, dose 0.01-1 µM, DDE = dose-dependent effect
[15] = Mutagenecity in Salmonella typhimurium TA98 in absence of S9 fraction at 1000 ug by Ames test; type: toxicity, Salmonella enterica subsp. enterica serovar Typhimurium; conditions: in vivo; dose 1000 µg
[16] = Drug distribution in C57 mouse liver at 3 mg/kg, iv administered as single dose measured upto 8 hrs by LC-MS/MS analysis; type: ADME, organism-based; conditions: in vivo
[17] = target: G-protein coupled receptor 84 (Mus musculus) (UniProt Q8CIM5); assay: Antagonist activity at GPR84 expressed in mouse bone marrow cells assessed as reduction in 3-OH-C12 induced migration in monocytes incubated for 90 mins by flow cytometry; type: functional, cell-based; conditions: Bone marrow cell, filed as antagonist, dose 0.01-1 µM, DDE = dose-dependent effect
[18] = Drug distribution in C57 mouse jejunum at 5 mg/kg, po administered as single dose measured upto 8 hrs by LC-MS/MS analysis; type: ADME, organism-based; conditions: in vivo
[19] = Drug distribution in C57 mouse ileum at 5 mg/kg, po administered as single dose measured upto 8 hrs by LC-MS/MS analysis; type: ADME, organism-based; conditions: in vivo
[20] = Drug distribution in DSS-induced ulcerative colitis mouse colon at 5 mg/kg, po administered as single dose measured upto 8 hrs by LC-MS/MS analysis; type: ADME, organism-based; conditions: in vivo
[21] = Mutagenecity in Salmonella typhimurium TA98 in presence of S9 fraction at 1000 ug by Ames test; type: toxicity, subcellular, Salmonella enterica subsp. enterica serovar Typhimurium; conditions: dose 1000 µg
Mus musculus [22] = assay: Anti-colitis activity against DSS-induced ulcerative colitis mouse model assessed as reduction in DAI score administered orally once daily for 7 consecutive days; type: functional, organism-based; conditions: dose 25-100 mg/kg, route po, DDE = dose-dependent effect
[23] = target: G-protein coupled receptor 84 (Mus musculus) (UniProt Q8CIM5); assay: Antagonist activity at GPR84 expressed in mouse bone marrow cells assessed as reduction in 3-OH-C12 induced migration in neutrophils incubated for 90 mins by flow cytometry; type: functional, cell-based; conditions: Bone marrow cell, filed as antagonist, dose 0.01-1 µM, DDE = dose-dependent effect
[24] = Drug distribution in C57 mouse duodenum at 5 mg/kg, po administered as single dose measured upto 8 hrs by LC-MS/MS analysis; type: ADME, organism-based; conditions: in vivo
Bone marrow cell = assay: Cytotoxicity against bone marrow cells (unknown origin) assessed as inhibition of cell growth upto 10 uM measured after 1.5 to 2 hrs by ATPlite assay; type: toxicity, cell-based; conditions: time 1.5-2 hrs
[25] = Drug distribution in C57 mouse colon at 5 mg/kg, po administered as single dose measured upto 8 hrs by LC-MS/MS analysis; type: ADME, organism-based; conditions: in vivo
[26] = Mutagenecity in Salmonella typhimurium TA100 in absence of S9 fraction at 1000 ug by Ames test; type: toxicity, Salmonella enterica subsp. enterica serovar Typhimurium; conditions: in vivo; dose 1000 µg
Mus musculus [27] = assay: Anti-colitis activity against DSS-induced ulcerative colitis mouse model assessed as attenuation of weight loss administered orally once daily for 7 consecutive days; type: functional, organism-based; conditions: dose 25-100 mg/kg, route po, DDE = dose-dependent effect
[28] = target: G-protein coupled receptor 84 (Mus musculus) (UniProt Q8CIM5); assay: Antagonist activity at GPR84 expressed in mouse bone marrow cells assessed as reduction in 6-OAU/3-OH-C12 induced migration in monocytes incubated for 90 mins by flow cytometry; type: functional, cell-based; conditions: Bone marrow cell, filed as antagonist, dose 0.01-1 µM, DDE = dose-dependent effect
[29] = Mutagenecity in Salmonella typhimurium TA100 in presence of S9 fraction at 1000 ug by Ames test; type: toxicity, subcellular, Salmonella enterica subsp. enterica serovar Typhimurium; conditions: dose 1000 µg
Mus musculus [30] = assay: Anti-colitis activity against DSS-induced ulcerative colitis mouse model assessed as attenuation of stool thinning administered orally once daily for 7 consecutive days; type: functional, organism-based; conditions: dose 25-100 mg/kg, route po, DDE = dose-dependent effect
Mus musculus [31] = assay: Anti-colitis activity against DSS-induced ulcerative colitis mouse model assessed as attenuation of rectal bleeding administered orally once daily for 7 consecutive days; type: functional, organism-based; conditions: dose 25-100 mg/kg, route po, DDE = dose-dependent effect
[32] = Drug distribution in DSS-induced ulcerative colitis mouse jejunum at 5 mg/kg, po administered as single dose measured upto 8 hrs by LC-MS/MS analysis; type: ADME, organism-based; conditions: in vivo
HEK293 = assay: Cytotoxicity against HEK293 cells assessed as inhibition of cell growth upto 100 uM measured after 24 hrs by ATPlite assay; type: toxicity, cell-based; conditions: human, hek293, 24 h

Chain of G-protein coupled receptor 84 (Mus musculus) (Q8CIM5 whole entry): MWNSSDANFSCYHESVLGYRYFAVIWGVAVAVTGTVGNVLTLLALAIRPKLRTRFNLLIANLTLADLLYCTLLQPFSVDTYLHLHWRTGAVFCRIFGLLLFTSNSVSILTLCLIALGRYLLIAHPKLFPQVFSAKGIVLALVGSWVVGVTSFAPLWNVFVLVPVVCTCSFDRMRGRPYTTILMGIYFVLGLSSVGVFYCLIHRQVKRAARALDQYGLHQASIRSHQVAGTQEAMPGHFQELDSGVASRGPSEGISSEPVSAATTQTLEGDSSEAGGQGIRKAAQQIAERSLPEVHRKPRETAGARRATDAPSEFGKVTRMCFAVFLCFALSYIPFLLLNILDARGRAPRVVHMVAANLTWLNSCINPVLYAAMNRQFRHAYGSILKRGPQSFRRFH
Chain of G-protein coupled receptor 84 (Homo sapiens, UniProt Q9NQS5) (Q9NQS5 whole entry): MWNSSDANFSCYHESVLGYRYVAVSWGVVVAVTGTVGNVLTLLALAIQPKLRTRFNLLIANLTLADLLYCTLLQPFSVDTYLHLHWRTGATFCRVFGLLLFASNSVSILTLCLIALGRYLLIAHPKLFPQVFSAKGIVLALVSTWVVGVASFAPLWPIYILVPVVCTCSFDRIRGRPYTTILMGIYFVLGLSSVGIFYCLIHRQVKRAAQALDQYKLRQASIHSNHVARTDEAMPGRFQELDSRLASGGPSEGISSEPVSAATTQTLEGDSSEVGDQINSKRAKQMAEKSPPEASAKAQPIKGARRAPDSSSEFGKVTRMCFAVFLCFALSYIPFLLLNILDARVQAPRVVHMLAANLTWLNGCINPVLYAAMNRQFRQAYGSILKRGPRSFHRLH
Chain of G-protein coupled receptor 84 (Mus musculus, UniProt Q8CIM5) (Q8CIM5 whole entry): as the sequence (Q8CIM5 whole entry) above

O=P(O)(Oc1ccccc1)Oc1ccccc1
IC50 [1]: > 100 µM

O=P([O-])(OC1=Cc2ccccc2Sc2ccccc21)OC1=Cc2ccccc2Sc2ccccc21.[Na+]
Cmax [2]: 192 ng/mL
MRT [3]: 4.05 h
MRT [4]: 0.932 h
half-life [5]: 1.62 h
AUC(0-inf) [6]: 1420 ng·h/mL
AUC(0-inf) [7]: 562 ng·h/mL
Vd [8]: 1.31 L/kg
half-life [9]: 1.14 h
bioavailability [10]: 15.7%
Tmax [11]: 1.67 h
IC50 [12]: 0.454 µM
clearance [13]: 23.7 mL/min/kg

O=P([O-])(OC1=Cc2c(Cl)cccc2Sc2ccccc21)OC1=Cc2c(Cl)cccc2Sc2ccccc21.[Na+]
Cmax [2]: 81.8 ng/mL
MRT [3]: 7.09 h
Activity [14]: Dde
Activity [15]: Non-Toxic
Drug uptake [16]: Active
MRT [4]: 2.26 h
Activity [17]: Dde
Drug uptake [18]: Active
half-life [5]: 4.39 h
Drug uptake [19]: Active
AUC(0-inf) [6]: 1710 ng·h/mL
Drug uptake [20]: Active
Activity [21]: Non-Toxic
Activity (Mus musculus [22]): Dde
Activity [23]: Dde
Drug uptake [24]: Active
Activity (Bone marrow cell): Non-Toxic
Drug uptake [25]: Active
AUC(0-inf) [7]: 517 ng·h/mL
Activity [26]: Non-Toxic
Activity (Mus musculus [27]): Dde
Activity [28]: Dde
Vd [8]: 2.98 L/kg
Activity [29]: Non-Toxic
Activity (Mus musculus [30]): Dde
Activity (Mus musculus [31]): Dde
half-life [9]: 5.12 h
bioavailability [10]: 11.9%
Drug uptake [32]: Active
Tmax [11]: 2.67 h
IC50 [12]: 0.273 µM
clearance [13]: 20.3 mL/min/kg
Activity (HEK293): Non-Toxic

COc1cccc2c1Sc1cccc(F)c1C=C2OP(=O)([O-])OC1=Cc2c(F)cccc2Sc2c(OC)cccc21.[Na+]
Cmax [2]: 74.3 ng/mL
MRT [3]: 2.21 h
MRT [4]: 1.89 h
half-life [5]: 1.91 h
AUC(0-inf) [6]: 7760 ng·h/mL
AUC(0-inf) [7]: 178 ng·h/mL
Vd [8]: 0.5 L/kg
half-life [9]: 5.75 h
bioavailability [10]: 0.91%
Tmax [11]: 0.42 h
clearance [13]: 4.33 mL/min/kg

COc1cccc2c1Sc1ccccc1C=C2OP(=O)([O-])OC1=Cc2ccccc2Sc2c(OC)cccc21.[Na+]
Cmax [2]: 43.6 ng/mL
MRT [3]: 7.41 h
MRT [4]: 1.82 h
half-life [5]: 4.99 h
AUC(0-inf) [6]: 4640 ng·h/mL
AUC(0-inf) [7]: 236 ng·h/mL
Vd [8]: 0.8 L/kg
half-life [9]: 5.59 h
bioavailability [10]: 2.3%
Tmax [11]: 1 h
clearance [13]: 7.5 mL/min/kg

O=c1nc(OCC2COCCO2)cc2n1CCc1cc(OCc3ccccn3)ccc1-2 (stereo unspecified)
IC50 [1]: 0.716 µM

O=P(O)(O)OC1=Cc2ccccc2Sc2ccccc21
IC50 [1]: > 100 µM

O=P(O)(CC1=Cc2ccccc2Sc2ccccc21)CC1=Cc2ccccc2Sc2ccccc21
IC50 [1]: 1.93 µM

COP(=O)(OC1=Cc2ccccc2Sc2ccccc21)OC1=Cc2ccccc2Sc2ccccc21
IC50 [1]: > 100 µM

O=c1nc(OC[C@@H]2COCCO2)cc2n1CCc1cc(C#CC3CC3)ccc1-2
Activity [14]: Dde
Activity [17]: Dde
Activity [23]: Dde
Activity [28]: Dde
